How the values were obtained:
HT-1080 cells [1] = test: MTT cytotoxicity assay, HT-1080 fibrosarcoma cells; format: cell-based, human; settings: 3 days incubation, mean of three independent experiments (± standard deviation)
Procedure: (§1) The compounds were tested for their cytotoxic activity on a solid tumor cell line, i.e. HT-1080 originating from a fibrosarcoma (American Type Culture Collection; ATCC, Rockville, MD, USA), and on two leukemia cell lines, i.e. the HL-60 human promyelocytic leukemia (European Collection of Animal Cell Cultures; ECACC, Salisbury, UK) and the K-562 human chronic myelogenous leukemia (ATCC). Furthermore, the human skin fibroblast strain AG01523 (Coriell Institute for Medical Research, Camden, NJ, USA) was also used as normal control. Adherent cells were routinely cultured in Dulbecco’s […] (DMEM), and leukemia cells in RPMI 1640, in an environment of 5% CO2, 85% humidity, and 37 °C. All media were supplemented with penicillin (100 U/ml), streptomycin (100 μg/ml) (media and antibiotics from Biochrom KG, Berlin, Germany), and 10% fetal bovine serum (Life Technologies Europe BV, Thessaloniki, Greece). Adherent cells were subcultured using a trypsin (0.25%; Life Technologies Europe BV)—citrate (0.30%; Sigma, St. Louis, MO, USA) solution. The cytotoxicity assay was performed by a modification of the MTT method. Briefly, the cells were plated in flat-bottomed 96-well microplates at a density of 5000 cells/well, and incubated overnight before the addition of serial dilutions of the test compounds. The cells were incubated with the compounds or the corresponding vehicle (DMSO) concentrations for 3 days. Then, the medium was replaced with MTT (Sigma) in serum-free, phenol-red-free DMEM (1 mg/ml). After incubation for 4 h, the MTT formazan was solubilized in 2-propanol, and the optical density was measured using a FLUOstar Optima (BMG Labtech, Ortenberg, Germany) microplate reader at a wavelength of 550 nm (reference wavelength 660 nm). Doxorubicin hydrochloride (Sigma) was included in the experiments as positive control. The results represent the mean of three independent experiments and are expressed as IC50 [42].

HL-60 cells = test: MTT cytotoxicity assay, HL-60 promyelocytic leukemia cells; format: cell-based, human; settings: 3 days incubation, mean of three independent experiments (± standard deviation)
Procedure: as §1

K-562 cells = test: MTT cytotoxicity assay, K-562 chronic myelogenous leukemia cells; format: cell-based, human; settings: 3 days incubation, mean of three independent experiments (± standard deviation)
Procedure: as §1

[2] = MTT cytotoxicity assay, normal skin fibroblast strain AG01523; format: cell-based; settings: AG01523 normal skin fibroblasts, normal human skin fibroblasts, 3 days incubation, mean of three independent experiments (± standard deviation)
Procedure: as §1

HT-1080 cells [3] = test: Flow cytometric analysis of DNA content (cell cycle phase distribution); format: cell-based, human; settings: 48 h, flow cytometry of DNA content (not shown)
AG01523 fibroblasts = test: MTT cytotoxicity assay, normal skin fibroblast strain AG01523; format: cell-based; settings: normal human skin fibroblasts, 3 days incubation, mean of three independent experiments (± standard deviation)
Procedure: as §1

For COc1ccc(-n2c(COc3ccc(C=C4SC(=S)NC4=O)cc3)nc3ccccc3c2=O)cc1 [Compound 40, 5-{4-[(3-(4-Methoxyphenyl)-4-oxo-3,4-dihydroquinazolin-2-yl)methoxy]benzylidene}-2-thioxothiazolidin-4-one], the IC50 (HT-1080 cells [1]; Homo sapiens, HT-1080, 72 h) was 36.4 µM and the melting point was 190 to 192 °C (dec.).

With COc1cc(C=C2SC(=S)NC2=O)ccc1OCc1nc2ccccc2c(=O)n1-c1ccc(F)cc1 [Compound 42, 5-{4-[(3-(4-Fluorophenyl)-4-oxo-3,4-dihydroquinazolin-2-yl)methoxy]-3-methoxybenzylidene}-2-thioxothiazolidin-4-one] the IC50 (HT-1080 cells [1]; Homo sapiens, HT-1080, 72 h) was 35.8 µM and the melting point was 163 to 166 °C.

In the case of COc1cc(C=C2SC(=S)NC2=O)ccc1OCc1nc2ccccc2c(=O)n1-c1ccc(Cl)cc1 [Compound 43, 5-{4-[(3-(4-Chlorophenyl)-4-oxo-3,4-dihydroquinazolin-2-yl)methoxy]-3-methoxybenzylidene}-2-thioxothiazolidin-4-one], the IC50 (HT-1080 cells [1]; Homo sapiens, HT-1080, 72 h) is reported as 10.2 µM, the “IC50 HL-60 cytotoxicity” value (HL-60 cells) is reported as “low micromolar range” and the IC50 (HL-60 cells; Homo sapiens, HL-60, 72 h) is reported as 5.1 µM. For the same compound, the “IC50 K-562 cytotoxicity” value (K-562 cells) was “low micromolar range”, the IC50 (K-562 cells; Homo sapiens, K562, 72 h) was 4.5 µM and the IC50 at 3 days [2] was > 100 µM. For the same compound, the “Cell cycle phase distribution” value (HT-1080 cells [3]) was “S-phase arrest”.

For COc1cc(C=C2SC(=S)NC2=O)ccc1OCc1nc2ccccc2c(=O)n1-c1cccc(Cl)c1 [Compound 44, 5-{4-[(3-(3-Chlorophenyl)-4-oxo-3,4-dihydroquinazolin-2-yl)methoxy]-3-methoxybenzylidene]-2-thioxothiazolidin-4-one], the IC50 (HT-1080 cells [1]; Homo sapiens, HT-1080, 72 h) was 28.4 µM and the melting point was 147 to 150 °C.

For COc1cc(C=C2SC(=S)NC2=O)ccc1OCc1nc2ccccc2c(=O)n1-c1ccc(Br)cc1 [Compound 45, 5-{4-[(3-(4-Bromophenyl)-4-oxo-3,4-dihydroquinazolin-2-yl)methoxy]-3-methoxybenzylidene}-2-thioxothiazolidin-4-one], the IC50 (HT-1080 cells [1]; Homo sapiens, HT-1080, 72 h) was 8.7 µM, the “IC50 HL-60 cytotoxicity” value (HL-60 cells) was “low micromolar range” and the IC50 (HL-60 cells; Homo sapiens, HL-60, 72 h) was 1.2 µM. The “IC50 K-562 cytotoxicity” value (K-562 cells) was “low micromolar range”, the IC50 (K-562 cells; Homo sapiens, K562, 72 h) was 1.5 µM and the IC50 at 3 days [2] was > 100 µM. The “Cell cycle phase distribution” value (HT-1080 cells [3]) was “S-phase arrest”.

For COc1cc(C=C2SC(=S)NC2=O)ccc1OCc1nc2ccccc2c(=O)n1-c1ccc(C(F)(F)F)cc1 [Compound 47], the IC50 (HT-1080 cells [1]) was 15.8 µM, the IC50 (HL-60 cells) was 2.6 µM and the “IC50 HL-60 cytotoxicity” value (HL-60 cells) was “low micromolar range”. The IC50 (K-562 cells) was 5.1 µM, the “IC50 K-562 cytotoxicity” value (K-562 cells) was “low micromolar range” and the IC50 (AG01523 fibroblasts) was > 100 µM.

Work on COc1cccc2c1C(=O)c1c(O)c3c(c(O)c1C2=O)C[C@@](O)(C(=O)CO)C[C@@H]3O[C@H]1C[C@H](N)[C@H](O)[C@H](C)O1 [Doxorubicin, reference compound] yielded an IC50 (HT-1080 cells [1]; Homo sapiens, HT-1080, 72 h) of 0.012 µM, an IC50 (HL-60 cells; Homo sapiens, HL-60, 72 h) of 0.011 µM and an IC50 (K-562 cells; Homo sapiens, K562, 72 h) of 0.212 µM. The IC50 at 3 days [2] was 0.875 µM.

From article PMC5640562, “Synthesis and anticancer activity of novel quinazolinone-based rhodanines” (Chemistry Central Journal, 2017)
